{
  "source": "patent US20040254123A1",
  "about": "“Malignant cell differentiation inducer compositions and utilization of the same” (priority 2001, published 2004)",
  "key": {"[1]": {"system": "rat glioma C6 cells", "test": "Morphological change of C6 cells (phase-contrast microscope)", "format": "cell-based", "conditions": "125 μg/ml SBA, 3 days"}, "[2]": {"system": "patients having a cancer or tumor", "test": "Clinical trial, intravenous SBA in patients having a cancer or tumor", "format": "in vivo, human", "text": "SBA can be administered, not only intravenously, but also into an abdominal cavity or subcutaneously, or orally."}, "[3]": {"system": "human neuroblastoma IMR-32 cells", "test": "Pseudo-ganglion formation / differentiation of IMR-32 cells (phase-contrast microscope)", "format": "cell-based", "text": "As [^3H] acetyl-coenzyme A (acetyl-CoA), a product manufactured by Amersham was used, and as propidium iodide, acridine orange and choline chloride, products manufactured by Sigma were used. As fetal bovine serum (hereinafter, abbreviated as FCS), a product manufactured by Cansera International was used.\nMorphological change of the cells, and the number of pseudo-ganglia formed were observed under a phase-contrast microscope (magnification: 200)."}, "[4]": {"system": "patient having a cancer or tumor", "conditions": "intravenous 1.5 to 6 g per day per adult; cited from earlier work"}, "[5]": {"system": "rat glioma C6 cells", "test": "Number of surviving C6 cells after SBA treatment (trypan blue)", "format": "cell-based", "conditions": "3 days treatment", "description": "Rat glioma C6 cells obtained from Japanese Cancer Research Resource Bank (JCRB) were inoculated on a medium in an amount of 1×10^5 cells/schale, cultured for 24 hours. […] Then, the cells were dyed with 0.2% trypan blue, then, the number of surviving cells was counted. The counted value of cell number represents average value±standard error (SE) of three continuous tests [*P<0.00301 and *P<0.00001 (in comparison with contrast)]. The counted value is shown as a bar graph in FIG. 3. This test was conducted in the absence of SBA, as a control test."}},
  "data": [
    {"smiles": "O=C1O[C@H]([C@@H]2COC(c3ccccc3)O2)C(O)=C1O", "note": "(stereo partly drawn) [SBA, mono-sodium 5,6-O-benzylidene-L-ascorbate]", "values": [
      {"measurement": "morphological change of C6 cells", "setting": "[1]", "value": "Formation of astrocytes was recognized"},
      {"measurement": "effect on cancer in patient with attendant rheumatoid arthritis", "setting": "[2]; 3 mg/body once per day", "value": "the cancer reduces"},
      {"measurement": "differentiation of cancer or tumor cells in patients", "setting": "[2]; intravenous 1 mg/body to 10 mg/body once per day per adult, 35 examples", "value": "induce differentiation of cancer cells or tumor cells into normal cells efficiently"},
      {"measurement": "differentiation of malignant cells forming new blood vessel", "setting": "[2]; patient with augmented new blood vessel in eye and eyeground hemorrhage, intravenous 1 to 10 mg/body once per day", "value": "induces differentiation of malignant cells forming new blood vessel into normal cells"},
      {"measurement": "survived cells induced to differentiate into neurocytes having neuritis", "setting": "[3]; 500 μg/ml SBA", "value": "20 to 30", "unit": "%"},
      {"measurement": "morphological change / formation of pseudo-ganglia", "setting": "[3]; SBA treatment 48 hours", "value": "IMR-32 cells form pseudo-ganglia"},
      {"measurement": "total dimension of the carcinoma or tumor", "setting": "[4]", "value": "decreases"},
      {"measurement": "CD50 (proliferation of C6 cells)", "setting": "[5]", "value": 250, "unit": "µg/mL"}
    ]}
  ]
}
